According to patent US9309248B2, “Azaindolines” (Hoffmann-La Roche Inc., priority 2012, dated 2016):

Assays:
BIR2 domain of XIAP = target: T1, BIR2 domain of XIAP (Homo sapiens, UniProt P98170, C202A/C213G); experiment: TR-FRET assay for BIR2 (inhibition of binding of XIAP BIR2 domain to SMAC-derived Peptide A); details: 6x Histidine-tagged BIR2 domain (amino acids 124-240 of XIAP) 10 nM, Peptide A 20 nM
T1 construct: 6× Histidine-tagged BIR2 domain, corresponding to amino acids 124-240 of XIAP
In short: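 Inhibition of binding of the XIAP BIR2 domain (C202A/C213G) to biotinylated SMAC-derived Peptide A was measured. TR-FRET signal was read after 1 h at room temperature.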

BIR3 domain of XIAP = target: T2, BIR3 domain of XIAP (Homo sapiens, UniProt P98170); experiment: TR-FRET assay for BIR3 (inhibition of binding of XIAP BIR3 domain to SMAC-derived Peptide A); details: 6x Histidine-tagged BIR3 domain (amino acids 241-356 of XIAP) 10 nM, Peptide A 20 nM
T2 construct: BIR3 domain, corresponding to amino acids 241-356 of XIAP
In short: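 His6-tagged XIAP BIR3 (aa 241-356, 10 nM) was mixed with 20 nM biotinylated SMAC-derived peptide in 50 mM Tris-Cl pH 7.5, 100 mM NaCl, 1 mM DTT, 0.1 mg/mL BSA and incubated 45 min at 37 °C. Eu-streptavidin (1.5 nM) and APC anti-His (15 nM) were added, with TR-FRET read 1 h later at RT. IC50 came from % inhibition over 10 serial concentrations.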

T1 sequence (P98170 with tags, fused parts or gaps C202A/C213G): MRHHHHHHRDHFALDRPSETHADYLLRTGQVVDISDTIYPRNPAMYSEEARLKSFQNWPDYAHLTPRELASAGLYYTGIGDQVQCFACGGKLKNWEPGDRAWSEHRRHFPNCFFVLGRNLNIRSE
T2 sequence (P98170 with tags, fused parts or gaps): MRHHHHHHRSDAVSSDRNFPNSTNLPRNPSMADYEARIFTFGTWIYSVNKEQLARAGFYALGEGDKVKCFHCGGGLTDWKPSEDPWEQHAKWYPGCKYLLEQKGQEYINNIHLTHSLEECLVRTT

SMILES | IC50 (BIR2 domain of XIAP) [nM] | IC50 (BIR3 domain of XIAP) [nM]
CN[C@@H](C)C(=O)N[C@H](C(=O)N1c2ncccc2C[C@H]1C(=O)NC(C)(C)c1ccccc1)C(C)C [Example 54, (S)-1-[(S)-3-Methyl-2-((S)-2-methylamino-propionylamino)-butyryl]-2,3-dihydro-1H-pyrrolo[2,3-b]pyridine-2-carboxylic acid (1-methyl-1-phenyl-ethyl)-amide] | 4730 | 47400
CN[C@@H](C)C(=O)N[C@H](C(=O)N1c2ncccc2C[C@H]1C(=O)NCc1cc(F)ccc1C)C(C)C [Example 55, (S)-1-[(S)-3-Methyl-2-((S)-2-methylamino-propionylamino)-butyryl]-2,3-dihydro-1H-pyrrolo[2,3-b]pyridine-2-carboxylic acid 5-fluoro-2-methyl-benzylamide] | 139 | 35300
CN[C@@H](C)C(=O)N[C@H](C(=O)N1c2ncccc2C[C@H]1C(=O)Nc1cncnc1)C(C)C [Example 56, (S)-1-[(S)-3-Methyl-2-((S)-2-methylamino-propionylamino)-butyryl]-2,3-dihydro-1H-pyrrolo[2,3-b]pyridine-2-carboxylic acid pyrimidin-5-ylamide] | 1630 | > 54800
CN[C@@H](C)C(=O)N[C@H](C(=O)N1c2ncccc2C[C@H]1C(=O)Nc1ccc2ccccc2c1)C(C)C [Example 57, (S)-1-[(S)-3-Methyl-2-((S)-2-methylamino-propionylamino)-butyryl]-2,3-dihydro-1H-pyrrolo[2,3-b]pyridine-2-carboxylic acid naphthalen-2-ylamide] | 164 | > 54800
CN[C@@H](C)C(=O)N[C@H](C(=O)N1c2ncccc2C[C@H]1C(=O)Nc1ccc(C#N)cc1F)C(C)C [Example 58, (S)-1-[(S)-3-Methyl-2-((S)-2-methylamino-propionylamino)-butyryl]-2,3-dihydro-1H-pyrrolo[2,3-b]pyridine-2-carboxylic acid (4-cyano-2-fluoro-phenyl)-amide] | 140 | > 54800
CN[C@@H](C)C(=O)N[C@H](C(=O)N1c2ncccc2C[C@H]1C(=O)Nc1ccc(C(F)(F)F)cc1F)C(C)C [Example 59, (S)-1-[(S)-3-Methyl-2-((S)-2-methylamino-propionylamino)-butyryl]-2,3-dihydro-1H-pyrrolo[2,3-b]pyridine-2-carboxylic acid (2-fluoro-4-trifluoromethyl-phenyl)-amide] | 53.6 | > 54800
CN[C@@H](C)C(=O)N[C@H](C(=O)N1c2ncccc2C[C@H]1C(=O)Nc1cccc(F)c1F)C(C)C [Example 60, (S)-1-[(S)-3-Methyl-2-((S)-2-methylamino-propionylamino)-butyryl]-2,3-dihydro-1H-pyrrolo[2,3-b]pyridine-2-carboxylic acid (2,3-difluoro-phenyl)-amide] | 38.2 | > 54800
CN[C@@H](C)C(=O)N[C@H](C(=O)N1c2ncccc2C[C@H]1C(=O)Nc1cc(F)ccc1F)C(C)C [Example 61, (S)-1-[(S)-3-Methyl-2-((S)-2-methylamino-propionylamino)-butyryl]-2,3-dihydro-1H-pyrrolo[2,3-b]pyridine-2-carboxylic acid (2,5-difluoro-phenyl)-amide] | 34.8 | > 54800
CN[C@@H](C)C(=O)N[C@H](C(=O)N1c2ncccc2C[C@H]1C(=O)Nc1ccc(C(=O)N(C)C)cc1F)C(C)C [Example 62, (S)-1-[(S)-3-Methyl-2-((S)-2-methylamino-propionylamino)-butyryl]-2,3-dihydro-1H-pyrrolo[2,3-b]pyridine-2-carboxylic acid (4-dimethylcarbamoyl-2-fluoro-phenyl)-amide] | 35.1 | > 54800
CN[C@@H](C)C(=O)N[C@H](C(=O)N1c2ncccc2C[C@H]1C(=O)Nc1ccc(Br)cc1F)C(C)C [Example 63, (S)-1-[(S)-3-Methyl-2-((S)-2-methylamino-propionylamino)-butyryl]-2,3-dihydro-1H-pyrrolo[2,3-b]pyridine-2-carboxylic acid (4-bromo-2-fluoro-phenyl)-amide] | 32 | > 54800
CNC(=O)c1ccc(NC(=O)[C@@H]2Cc3cccnc3N2C(=O)[C@@H](NC(=O)[C@H](C)NC)C(C)C)c(F)c1 [Example 64, (S)-1-[(S)-3-Methyl-2-((S)-2-methylamino-propionylamino)-butyryl]-2,3-dihydro-1H-pyrrolo[2,3-b]pyridine-2-carboxylic acid (2-fluoro-4-methylcarbamoyl-phenyl)-amide] | 59.6 | > 54800
CN[C@@H](C)C(=O)N[C@H](C(=O)N1c2ncccc2C[C@H]1C(=O)Nc1ccc(F)cc1F)C(C)C [Example 65, (S)-1-[(S)-3-Methyl-2-((S)-2-methylamino-propionylamino)-butyryl]-2,3-dihydro-1H-pyrrolo[2,3-b]pyridine-2-carboxylic acid (2,4-difluoro-phenyl)-amide] | 35.1 | > 54800
CN[C@@H](C)C(=O)N[C@H](C(=O)N1c2ncccc2C[C@H]1C(=O)Nc1nc(C)cs1)C(C)C [Example 66, (S)-1-[(S)-3-Methyl-2-((S)-2-methylamino-propionylamino)-butyryl]-2,3-dihydro-1H-pyrrolo[2,3-b]pyridine-2-carboxylic acid (4-methyl-thiazol-2-yl)-amide] | 496 | > 54800
CN[C@@H](C)C(=O)N[C@H](C(=O)N1c2ncccc2C[C@H]1C(=O)Nc1ncc(C)s1)C(C)C [Example 67, (S)-1-[(S)-3-Methyl-2-((S)-2-methylamino-propionylamino)-butyryl]-2,3-dihydro-1H-pyrrolo[2,3-b]pyridine-2-carboxylic acid (5-methyl-thiazol-2-yl)-amide] | 92.6 | > 54800
CN[C@@H](C)C(=O)N[C@H](C(=O)N1c2ncccc2C[C@H]1C(=O)Nc1ccncc1F)C(C)C [Example 69, (S)-1-[(S)-3-Methyl-2-((S)-2-methylamino-propionylamino)-butyryl]-2,3-dihydro-1H-pyrrolo[2,3-b]pyridine-2-carboxylic acid (3-fluoro-pyridin-4-yl)-amide] | 105 | > 54800
CN[C@@H](C)C(=O)N[C@H](C(=O)N1c2ncccc2C[C@H]1C(=O)Nc1c(F)cccc1Cl)C(C)C [Example 70, (S)-1-[(S)-3-Methyl-2-((S)-2-methylamino-propionylamino)-butyryl]-2,3-dihydro-1H-pyrrolo[2,3-b]pyridine-2-carboxylic acid (2-chloro-6-fluoro-phenyl)-amide] | 21.5 | > 54800
CN[C@@H](C)C(=O)N[C@H](C(=O)N1c2ncccc2C[C@H]1C(=O)Nc1c(C)cccc1Cl)C(C)C [Example 71, (S)-1-[(S)-3-Methyl-2-((S)-2-methylamino-propionylamino)-butyryl]-2,3-dihydro-1H-pyrrolo[2,3-b]pyridine-2-carboxylic acid (2-chloro-6-methyl-phenyl)-amide] | 19.2 | > 54800
CN[C@@H](C)C(=O)N[C@H](C(=O)N1c2ncccc2C[C@H]1C(=O)Nc1c(Cl)cc(Cl)cc1Cl)C(C)C [Example 72, (S)-1-[(S)-3-Methyl-2-((S)-2-methylamino-propionylamino)-butyryl]-2,3-dihydro-1H-pyrrolo[2,3-b]pyridine-2-carboxylic acid (2,4,6-trichloro-phenyl)-amide] | 13.7 | > 54800
CN[C@@H](C)C(=O)N[C@H](C(=O)N1c2ncccc2C[C@H]1C(=O)Nc1c(F)cccc1C(F)(F)F)C(C)C [Example 73, (S)—N-(2-fluoro-6-(trifluoromethyl)phenyl)-1-((S)-3-methyl-2-((S)-2-(methylamino)propanamido)butanoyl)-2,3-dihydro-1H-pyrrolo[2,3-b]pyridine-2-carboxamide] | 69.1 | > 54800
CN[C@@H](C)C(=O)N[C@H](C(=O)N1c2ncccc2C[C@H]1C(=O)Nc1c(Cl)cccc1Cl)C(C)C [Example 74, (S)-1-[(S)-3-Methyl-2-((S)-2-methylamino-propionylamino)-butyryl]-2,3-dihydro-1H-pyrrolo[2,3-b]pyridine-2-carboxylic acid (2,6-dichloro-phenyl)-amide] | 16.6 | > 54800
CN[C@@H](C)C(=O)N[C@H](C(=O)N1c2ncccc2C[C@H]1C(=O)Nc1c(Cl)cccc1C(F)(F)F)C(C)C [Example 75, (S)-1-[(S)-3-Methyl-2-((S)-2-methylamino-propionylamino)-butyryl]-2,3-dihydro-1H-pyrrolo[2,3-b]pyridine-2-carboxylic acid (2-chloro-6-trifluoromethyl-phenyl)-amide] | 57.5 | > 54800
CCN[C@@H](C)C(=O)N[C@H](C(=O)N1c2ncccc2C[C@H]1C(=O)Nc1ccccc1)C1CCCCC1 [Example 76, (S)-1-[(S)-2-Cyclohexyl-2-((S)-2-ethylamino-propionylamino)-acetyl]-2,3-dihydro-1H-pyrrolo[2,3-b]pyridine-2-carboxylic acid phenylamide] | 353 | > 54800
CCN[C@@H](C)C(=O)N[C@H](C(=O)N1c2ncccc2C[C@H]1C(=O)Nc1c(F)cccc1F)C(C)C [Example 77, (S)-1-[(S)-2-((S)-2-Ethylamino-propionylamino)-3-methyl-butyryl]-2,3-dihydro-1H-pyrrolo[2,3-b]pyridine-2-carboxylic acid (2,6-difluoro-phenyl)-amide] | 46.2 | > 54800
